From US4921865A, “Aminoacylates of glycerol acetal” (Societe de Conseils de Recherches et d'Applications …, priority 1987, dated 1990)

Assays:
[1] = tested on: antigen-induced thrombocytopenia; test: antigen-induced thrombocytopenia in passively sensitized guinea-pigs; format: in vivo, guinea-pig (Hartley); details: 5 mg/kg IV; for Percentage Inhibition (thrombocytopenia): vs control
[2] = tested on: antigen-induced bronchoconstriction; test: antigen-induced bronchoconstriction in passively sensitized guinea-pigs; format: in vivo, guinea-pig (Hartley); details: 5 mg/kg IV
[3] = tested on: PAF-induced [Ca^2+ ]i mobilization, washed rabbits platelets; test: inhibition of intracytosolic free calcium mobilization induced by PAF in washed rabbit platelets; format: cell-based; details: PAF 2×10^-9 M; for inhibition of PAF-induced [Ca^2+ ]i mobilization (in words): 5×10^-7 M; for inhibition at 0.05 µM: Oryctolagus cuniculus, Platelet, 5×10^-8 M, read-out: inhibition of PAF effect on [Ca^2+ ]i
Protocol: Blood was taken from the auricular artery of the rabbit on citric acid/sodium citrate/dextrose and anticoagulan and the washed platelets were prepared according to Ardlie et al., Brit. J. Pharmacology, 19, 7-17, 1970. They were incubated with acetylsalicylic salt (100 μM, 30 minutes) to avoid thromboxane induced aggregation. They were then loaded with the fluorescent calcium indicator dye quin 2 by incubation with quin 2 aceto-methylester (15 μM in DMSO, 20 minutes at room temperature) which penetrates the cell membrane and after hydrolysed is trapped in the platelet. Drugs were preincubated with platelets for 15 minutes simultaneously to CP/CPK mixture which destroys secreted ADP.
Fluorescent measurement was then performed (excitation λ=339 nm, emission λ=494 nm) after PAF addition to platelet suspension. The fluorescence intensity is proportional to the cytosolic free calcium level [Ca^2+ ]i which can be quantified as described by Tsien et al., J. Cell Biol., 94, 325-334, 1982.

[4] = tested on: PAF-induced bronchoconstriction; test: PAF-induced bronchoconstriction in the guinea pig; format: in vivo; details: for Percentage Variation (bronchoconstriction): vs control; for inhibition of PAF-induced bronchoconstriction (in words): pyridinium compound 0.5, 1 and 5 mg/kg IV, quinolinium compound 0.5 and 1 mg/kg IV
Protocol: Male Guinea-pig (400-500 g) were anesthetized with urethane (1.5 g/kg: IP) prior to be tracheotomized and ventilated with a respiratory pump (UGO BASILE) (70-80 breath/minute, 1 ml air/100 g/breath) to abolish spontaneous respiration a pneumothorax was performed. The resistance to inflation was measured with a pressure transducer (UGO BASILE) against an initial pressure of 10 cm H2 O according to Konzett and Rossler. Animals were allocated into groups and were treated or not by the compounds of the invention (0.05, 0.1, 0.5, 1 and 5 mg/kg).The products were given IV 1 hour before challenge with PAF.
The animals were challenged with various doses of PAF ([…]) given intravenously, and the variations in the resistance to inflation were recorded.

[5] = tested on: antigen-induced leukopenia; test: antigen-induced leukopenia in passively sensitized guinea-pigs; format: in vivo, guinea-pig (Hartley); details: 5 mg/kg IV; for Percentage Inhibition (leukopenia): vs control
[6] = tested on: platelets (PAF induced platelet aggregation); test: inhibition of PAF-induced platelet aggregation in platelet rich plasma; format: cell-based, New Zealand rabbits; details: Oryctolagus cuniculus; rabbit platelet rich plasma, 2.5 nM PAF
Protocol: 1--INHIBITION OF THE PLATELETS AGGREGATION ON NEW ZEALAND RABBITS
The experimentation was conducted on platelets with plasma of New Zealand rabbits.
Blood samples were taken from auricular artery and placed in a citrate buffer (3.8 %; pH 7.4); blood was further centrifugated for 15 mn at 1200 RPM.
The tested sample was prepared in DMSO, then poured on platelets rich plasma for 1 mn, then a dose of 2.5 nM of PAF was added.
The determination is made on a Cronolog Coultronics apparatus which determines the transmission percentage corresponding to the maximum height of the peak before the desaggregation.
The percentage of variation of the inhibition with respect to the transmission percentage is calculated (control: pure DMSO).
This method was described in details in LABORATORY INVESTIGATIONS, Vol. 41, No. 3, p. 275, 1979, JEAN-PIERRE CAZENAVE, Dr. MED. , JACQUES BENVENISTE, Dr. MED., AND J. FRASER MUSTARD, M.D., "Aggregation of Rabbits Platelets by Platelet-Activating Factor Is Independent of the Release Reaction and the Arachidonate Pathway and Inhibited by Membrane-Active Drugs".
Five tests made on 5 different rabbits allowed us to calculate the IC50 of the various compounds using the linear regression test.

Row | Structure (SMILES) | inhibition of PAF-induced [Ca^2+ ]i mobilization (in words) [3] | inhibition at 0.05 µM [3] [%] | Percentage Bronchoconstriction ([4]; 0.1 mg/kg IV) | Percentage Variation (bronchoconstriction) ([4]; 0.1 mg/kg IV) [%] | Percentage Bronchoconstriction ([4]; 0.5 mg/kg IV) | Percentage Variation (bronchoconstriction) ([4]; 0.5 mg/kg IV) [%] | Percentage Bronchoconstriction ([4]; 1 mg/kg IV) | Percentage Variation (bronchoconstriction) ([4]; 1 mg/kg IV) [%] | inhibition of PAF-induced bronchoconstriction (in words) [4] | IC50 [6] [nM] | other results
1 | CCCCCCCCCCCCCCCCCC1(C)OCC(COC(=O)CCCCC[n+]2ccccc2)O1 (centres unmarked) [Example 9, 2-heptadecyl 2-methyl 4-[6'-(N-pyridinium)hexanoyloxymethyl] 1,3 dioxolan bromide] | totally inhibit | 44 | 43.8 +/- 14.77% | -45.1 | 23.6 +/- 7.15% | -70.4 | 19.1 +/- 10.51% | -76.1 | inhibit | 404 | effect on antigen-induced thrombocytopenia (in words) [1]: antagonizes; Percentage Inhibition (thrombocytopenia) ([1]; 1 mn): -104.4%; Percentage Inhibition (thrombocytopenia) ([1]; 5 mn): -91.2%; Percentage Inhibition (thrombocytopenia) ([1]; 10 mn): -39.8%; Percentage Bronchoconstriction [2]: 51.3 +/- 14.2%; effect on antigen-induced bronchoconstriction (in words) [2]: without significantly reducing; Percentage Variation (bronchoconstriction) ([2]; vs control): -28.7%; Percentage Bronchoconstriction ([4]; 0.05 mg/kg IV): 79.0 +/- 9.27%; Percentage Variation (bronchoconstriction) ([4]; 0.05 mg/kg IV): -1.0%; Percentage Bronchoconstriction ([4]; 5 mg/kg IV): 3.5 +/- 1.53%; Percentage Variation (bronchoconstriction) ([4]; 5 mg/kg IV): -95.6%; effect on antigen-induced leukopenia (in words) [5]: antagonizes; Percentage Decrease in leukocytes number ([5]; 1 mn): -15.6 +/- 6.6%; Percentage Inhibition (leukopenia) ([5]; 1 mn): +32.0%; Percentage Decrease in leukocytes number ([5]; 5 mn): -8.7 +/- 10.7%; Percentage Inhibition (leukopenia) ([5]; 5 mn): -78.0%; Percentage Decrease in leukocytes number ([5]; 10 mn): -12.3 +/- 14.1%; Percentage Inhibition (leukopenia) ([5]; 10 mn): -77.2%
2 | CCCCCCCCCCCCCCCCCC1(C)OCC(COC(=O)CCCCC[n+]2cccc3ccccc32)O1 (centres unmarked) [Example 10, 2-heptadecyl 2-methyl 4-[6'-(N-quinolinium)hexanoyloxymethyl) 1,3-dioxolanbromide] | totally inhibit | 75 | 80.4 +/- 13.78% | -11.5 | 25.1 +/- 6.53% | -72.4 | 8.1 +/- 2.91% | -91.1 | inhibit | 303 | 
